Data published in paper PMC9174199, “Structural basis for MTA1c-mediated DNA N6-adenine methylation” (Nature Communications, 2022).

Assays:
[1] = target: T1, TthMTA1 (residues 126-372)-Tthp2 crystal complex (Tetrahymena thermophila, UniProt Q22GC0); test: X-ray crystal structure, soaking; format: binding; conditions: site in MTA1 MTase domain
T1 construct: gene TTHERM_00704040; N-terminally truncated MTA1 with p2
T1 sequence (Q22GC0 182-428): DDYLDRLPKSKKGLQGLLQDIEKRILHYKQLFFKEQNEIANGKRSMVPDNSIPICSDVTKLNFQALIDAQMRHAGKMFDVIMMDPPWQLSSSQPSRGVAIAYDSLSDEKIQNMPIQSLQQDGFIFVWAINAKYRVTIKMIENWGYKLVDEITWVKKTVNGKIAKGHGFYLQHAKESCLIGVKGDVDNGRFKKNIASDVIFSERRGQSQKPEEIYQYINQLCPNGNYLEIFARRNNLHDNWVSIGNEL

[2] = target: T2, TthMTA1 (residues 126–372)-Tthp1-Tthp2 crystal complex (Tetrahymena thermophila, UniProt Q22GC0); test: X-ray crystal structure, soaking; format: binding; conditions: site in MTA1 MTase domain
T2 construct: gene TTHERM_00704040; N-terminally truncated MTA1 with p1 and p2; p1 degraded in the crystal, only its HTH domain seen
T2 sequence (Q22GC0 182-428): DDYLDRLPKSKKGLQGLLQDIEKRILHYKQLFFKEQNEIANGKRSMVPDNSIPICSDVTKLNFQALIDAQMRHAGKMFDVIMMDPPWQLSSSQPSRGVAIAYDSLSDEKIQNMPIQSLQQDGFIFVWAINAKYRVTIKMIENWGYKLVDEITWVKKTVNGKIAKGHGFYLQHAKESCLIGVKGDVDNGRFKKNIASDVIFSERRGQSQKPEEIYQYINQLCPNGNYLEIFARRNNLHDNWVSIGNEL

[3] = target: T3, TthMTA1-Tthp2 binary complex (ITC) (Tetrahymena thermophila, UniProt Q22GC0); test: isothermal titration calorimetry; conditions: 25 °C, pH 7.5, 300 mM NaCl, no DNA
T3 construct: gene TTHERM_00704040
T3 sequence (Q22GC0 entry or part of it, one chain of several): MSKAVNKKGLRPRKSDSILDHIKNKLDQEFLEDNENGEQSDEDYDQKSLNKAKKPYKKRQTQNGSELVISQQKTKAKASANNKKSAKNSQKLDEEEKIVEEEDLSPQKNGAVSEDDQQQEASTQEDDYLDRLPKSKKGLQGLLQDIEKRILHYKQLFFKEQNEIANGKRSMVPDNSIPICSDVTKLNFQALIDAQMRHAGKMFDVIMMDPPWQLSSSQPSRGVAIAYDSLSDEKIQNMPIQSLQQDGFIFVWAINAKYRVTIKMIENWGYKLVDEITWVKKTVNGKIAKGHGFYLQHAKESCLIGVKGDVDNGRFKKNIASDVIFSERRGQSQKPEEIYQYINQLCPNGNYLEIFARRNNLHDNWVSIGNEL

[4] = target: T4, TthMTA1-TthMTA9-Tthp2 ternary complex (ITC) (Tetrahymena thermophila, UniProt Q22GC0); test: isothermal titration calorimetry; conditions: 25 °C, pH 7.5, 300 mM NaCl, no DNA
T4 construct: gene TTHERM_00704040
T4 sequence (Q22GC0 entry or part of it, one chain of several): as above

[5] = target: T5, TthMTA1-Tthp1-Tthp2 ternary complex (ITC) (Tetrahymena thermophila, UniProt Q22GC0); test: isothermal titration calorimetry; conditions: 25 °C, pH 7.5, 300 mM NaCl, no DNA
T5 construct: gene TTHERM_00704040
T5 sequence (Q22GC0 entry or part of it, one chain of several): as above

[6] = target: T6, TthMTA1c (MTA1-MTA9-p1-p2 quaternary complex) (Tetrahymena thermophila, UniProt Q22GC0); test: isothermal titration calorimetry; conditions: 25 °C, pH 7.5, 300 mM NaCl, no DNA
T6 construct: gene TTHERM_00704040
T6 sequence (Q22GC0 entry or part of it, one chain of several): as above

TthMTA1-Ptep2 (ITC) = target: T7, TthMTA1-Ptep2 (ITC) (Tetrahymena thermophila, UniProt Q22GC0); test: isothermal titration calorimetry; conditions: 25 °C, pH 7.5, 300 mM NaCl, no DNA
T7 construct: gene TTHERM_00704040
T7 sequence (Q22GC0 57-428): as the sequence (Q22GC0 entry or part of it, one chain of several) above

[7] = target: Tetrahymena thermophila MTA1 (TthMTA1), untagged (Tetrahymena thermophila); test: SEC; Superdex 200 Increase 10/300; purified proteins mixed at equimolar ratio (1:1, 1:1:1 or 1:1:1:1), 60 min on ice; 20 mM Tris pH 7.5, 300 mM NaCl, 2 mM DTT; peak fractions on SDS-PAGE
[8] = target: T8, GST-MTA1 (residues 171-372); test: GST pull-down; conditions: chain shown with the change;; parent: 100
T8 chain: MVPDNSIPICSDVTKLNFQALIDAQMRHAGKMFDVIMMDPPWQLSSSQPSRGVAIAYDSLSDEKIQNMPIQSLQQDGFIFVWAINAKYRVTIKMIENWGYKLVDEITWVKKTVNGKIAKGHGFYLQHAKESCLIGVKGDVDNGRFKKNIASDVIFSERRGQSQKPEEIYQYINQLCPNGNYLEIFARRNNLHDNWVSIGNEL

His6GST-Tthp2 = target: T9, His6GST-Tthp2; test: GST pull-down; conditions: chain shown with the change;; parent: 100
T9 chain: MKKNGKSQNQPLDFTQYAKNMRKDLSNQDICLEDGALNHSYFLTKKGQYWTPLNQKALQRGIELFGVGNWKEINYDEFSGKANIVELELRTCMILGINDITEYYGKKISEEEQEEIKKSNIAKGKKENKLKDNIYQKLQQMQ

Molecule: C[S+](CC[C@H](N)C(=O)O)C[C@H]1O[C@@H](n2cnc3c(N)ncnc32)[C@H](O)[C@@H]1O (stereo partly drawn) [SAM]
- X-ray crystal structure, soaking ([1]; 1 mM SAM soak): further confirmed by our SAM- and SAH-bound MTA1-p2 structures
- X-ray crystal structure, soaking ([2]; 3.4 Å, 1 mM SAM soak): SAM donor-bound MTA1-p1-p2 complex
- Kd [3]: 44.6 ± 3.4 µM
- Kd [4]: 3.64 ± 0.56 µM
- Kd [5]: 14.8 ± 2.71 µM
- Kd [6]: 2.4 ± 0.26 µM
- Kd (TthMTA1-Ptep2 (ITC)): 67.8 ± 5.45 µM

Molecule: Tetrahymena thermophila MTA9 (TthMTA9), untagged (natural protein)
- stoichiometry N [7]: 1

Molecule: Nc1ncnc2c1ncn2[C@@H]1O[C@H](CSCC[C@H](N)C(=O)O)[C@@H](O)[C@H]1O [SAH]
- X-ray crystal structure, soaking ([1]; 1 mM SAH soak): further confirmed by our SAM- and SAH-bound MTA1-p2 structures
- X-ray crystal structure, soaking ([2]; 3.0 Å, 1 mM SAH soak): the SAH product-bound MTA1-p1-p2 complex by soaking approach

B1: Paramecium tetraurelia MTA9 (PteMTA9), untagged K218A (protein)
chain: MGKNQRESLRMRLRYNEPGSENKRINYFKLNQGYDITEDDSEYMDEQDSYKAFKKIRKYKTKSKEDKVTCDNLEVLLQWKGSINCQSYETDQKKIVVLKKILGTDLSQYAKGVQGIFIDNLFKKDLKNLDISKKLISNGILFIWSDKSLINEILETMENKGFTYIENLVVVQLSLEQALEELNKHMKIEQTEDAVLDNLDFLQQKVQVKDLILHRPSAVLNQSKQVLIMFRKFDEQKSQLELRHQRTPDVLFDIVNNGKSCLKTKEYIYQTIETLLPKSQLMEIFAQKDQPRKGWISVCENK
- percent of parent [8]: 99%

B2: Tetrahymena thermophila MTA1 (TthMTA1), untagged R358A (protein)
chain: MSKAVNKKGLRPRKSDSILDHIKNKLDQEFLEDNENGEQSDEDYDQKSLNKAKKPYKKRQTQNGSELVISQQKTKAKASANNKKSAKNSQKLDEEEKIVEEEDLSPQKNGAVSEDDQQQEASTQEDDYLDRLPKSKKGLQGLLQDIEKRILHYKQLFFKEQNEIANGKRSMVPDNSIPICSDVTKLNFQALIDAQMRHAGKMFDVIMMDPPWQLSSSQPSRGVAIAYDSLSDEKIQNMPIQSLQQDGFIFVWAINAKYRVTIKMIENWGYKLVDEITWVKKTVNGKIAKGHGFYLQHAKESCLIGVKGDVDNGRFKKNIASDVIFSERRGQSQKPEEIYQYINQLCPNGNYLEIFARANNLHDNWVSIGNEL
- percent of parent (His6GST-Tthp2): 4%
